From patent US20100249383A1, “Novel Ligand Involved In The Transmigration Of Leukocytes Across the Endothelium and Uses Therefor” (The Regents of The University of California and The Burnham …, priority 2001, published 2010)

B1: annexin I: human annexin I, from neutrophil lysates or recombinant full length from E. coli (protein, UniProt P04083 2-346, looked up)
Annexin A1: AMVSEFLKQAWFIENEEQEYVQTVKSSKGGPGSAVSPYPTFNPSSDVAALHKAIMVKGVDEATIIDILTKRNNAQRQQIKAAYLQETGKPLDETLKKALTGHLEEVVLALLKTPAQFDADELRAAMKGLGTDEDTLIEILASRTNKEIRDINRVYREELKRDLAKDITSDTSGDFRNALLSLAKGDRSEDFGVNEDLADSDARALYEAGERRKGTDVNVFNTILTTRSYPQLRRVFQKYTKYSKHDMNKVLDLELKGDIEKCLTAIVKCATSKPAFFAEKLHQAMKGVGTRHKALIRIMVSRSEIDMNDIKAFYQKMYGISLCQAILDETKGDYEKILVALCGGN

Key:
mAbGB3.1 = assay: Inhibition ELISA of mAbGB3.1 binding to bovine lung proteins / immobilized BSA neoglycoproteins; set-up: species or system mouse; conditions: for inhibition of mAbGB3.1 binding by glycosaminoglycan-like compounds: at 1 to 5 mM; for inhibition of mAbGB3.1 reactivity by carboxylic acids: low mM concentrations, pH 7.5, FIG. 2 Panel C; for effect on mAbGB3.1 reactivity in the ELISA assay: sulfated or phosphorylated sugars tested at or below 5 mM, data not shown
Procedure: Binding in the absence of inhibitor was defined as 100%. […] Binding at pH 7.0 was defined as 100% for each. […] Binding in the absence of inhibitor was defined as 100%.
In these ELISAs, 96-well plates were coated with 250 ng of BSA neoglycoproteins at incubated either for 6 h at room temperature, or 4 h at 37° C. Plates were washed and blocked with 3% BSA in PBS overnight, incubated with hybridoma culture supernatants or with purified IgG diluted in PBS containing 1% BSA and 0.05% Tween 20. Incubations were for 1-2 h at room temperature, or overnight at 4° C. The plates were then washed and incubated with alkaline phosphatase conjugated goat anti-mouse IgG, followed by development with p-nitrophenyl phosphate substrate. Absorbance was measured at 405 nm in an ELISA plate reader.
Briefly, 96-well plates were coated with 50 ng of bovine albumin (BSA) neoglycoproteins containing total bovine lung glycopeptides coupled to BSA using glutaraldehyde for 4 h at 37° C. The neoglycoproteins were prepared for immunization screening as described above.
Plates were washed and blocked with 3% BSA in phosphate-buffered saline (PBS) overnight at 4° C. […] The plates were then washed and incubated with alkaline phosphatase conjugated goat anti-mouse IgG, followed by development with p-nitrophenyl phosphate substrate. Absorbance was measured at 405 nm in an ELISA plate reader.

[1] = tested on: 0.3 M asialo-COO^− glycopeptide-BSA neoglycoproteins; assay: ELISA binding of purified proteins to immobilized carboxylated bovine lung glycans; conditions: FIG. 19 or data not shown
Procedure: In additional ELISA experiments, 96-well plates were coated with 0.3 M asialo-COO^− glycopeptide-BSA neoglycoproteins (250 ng/well) for 4 h at 37° C. (control wells had BSA alone) and blocked with 3% BSA in PBS overnight. The wells were then incubated with purified human annexin I or S100A8/A9 complexes (as appropriate), in 10 mM HUES buffer pH 7.5 containing 150 mM NaCl, 5 mM KCl, 1.2 mM MgCl2 and 1.3 mM CaCl2, in the absence or presence of varying concentrations of 0.3 M asialo-COO^− glycopeptides or 0.3 M asialo-CONHMe-glycopeptides for 2 h at room temperature. This was followed by incubation with anti-bovine annexin I antibody or anti-human S100A8 or anti-S100A9 for 2 h at room temperature. Wells were then washed and incubated with alkaline phosphatase conjugated goat anti-mouse IgG, followed by development with p-nitrophenyl phosphate substrate.
In this Example, experiments conducted to assess amphoterin binding to COO^− glycopeptide coated plates was assayed as described earlier for annexin I and S100 proteins. In addition, bound protein was detected using anti-amphoterin. mAbGB3.1 binding to sRAGE was assessed by first coating sRAGE on microtiter wells for 4 h at 37° C. After blocking with 3% BSA in PBS overnight, wells were incubated with mAbGB3.1 in the presence and absence of COO^−or CONHMe-glycopeptide and developed as described above.

[2] = tested on: BSA coupled 0.3 M asialo-COO^− lung glycopeptides; assay: Depletion of annexin I and S100 proteins from human neutrophil lysates by immobilized bovine lung glycopeptides; assay type: binding; conditions: for depletion from neutrophil extracts after binding to the glycopeptides: immunoblot of supernatants, FIG. 15, FIG. 16
Procedure: In these assays, extracts from activated human neutrophils were first incubated with immobilized asialo-COO^− glycopeptides, and the residual proteins in the supernatants were analyzed by immunoblots. Since the S100A8/A9 complexes are typically destroyed during SDS-PAGE (i.e., break down into monomers), the intensity of staining in immunoblots was beyond the linearity of reaction for any quantitative evaluation.
In these experiments, 96-well plates were coated with 250 ng of BSA coupled 0.3 M asialo-COO^− lung glycopeptides for 4 h at 37° C. and blocked with 3% BSA in PBS overnight. Human neutrophil extracts were sequentially incubated in each of four wells for 30 min/well at 37° C. in leukocyte activation buffer (described above), in presence or absence of 200 μM 0.3 M asialo-COO^− glycopeptides or asialo-CONHMe-glycopeptides. After incubation, the supernatants from the incubation wells were collected and protein depletion was analyzed by immunoblotting using the respective antibodies. For detection of S100A8/A9 complexes, the proteins in the supernatants were stabilized by chemical cross-linking using bis-sulfosuccinimidyl suberate (BS^3) as known in the art (See, Staros, Biochem., 21:3590 [1982]). Briefly, the cross linker was added from a fresh 2 mM stock solution to neutrophil lysates obtained as described above, to a final concentration of 200 μM, and the mixture was incubated at room temperature for 30 min. Reactions were quenched by the addition of 1 M Tris to a final concentration of 10 mM and samples were stored at −80° C., until they were assayed. Cross-linked samples were incubated with 2-mercaptoethanol prior to separation on SDS-PAGE. Since crude lysates were used in the cross-linking, it is conceivable that non-specific cross-linking could occur. Therefore, only the bands that were still strongly stained with increasing dilution of both anti-S100A8 and anti-S100A9 were identified.

[3] = tested on: [2-^3H]mannose-labeled CPAE glycoproteins; assay: Precipitation of mannose-labeled glycoproteins and cross-binding; set-up: species or system bovine; conditions: primary binding
Procedure: Calf pulmonary artery endothelial cells (CPAE) cells were labeled with [2-^3H] mannose at 20 μCi/ml for 24 h in alpha MEM containing 10% fetal bovine serum. Cells were harvested by trypsinization, washed thrice in PBS, and lysed in PBS containing protease inhibitors and 0.5% NP40. Protein-rich lysates were prepared by ultrafiltration on YM10 membranes. Purified S100A8/A9 or annexin I proteins were immobilized on Affigel-10, and mixed with the labeled glycoproteins from CPAE cells in 10 mM HEPES buffer pH 7.5 containing 150 mM NaCl, 5 mM KCl, 1.2 mM MgCl2 and 1.3 mM CaCl2 after preclearing the lysates with BSA-Affigel 10. For immunoprecipitations using mAbGB3.1, lysates were precleared with normal mouse IgG-protein G beads and then incubated with Protein G coupled to mAbGB3.1 IgG in PBS. After overnight incubation at 4° C., the individual pellets were washed free of all unbound label until no more counts appeared in the washes, and the radioactivity associated with the pellets was measured.
For cross-binding, label associated with each pellet was first eluted using high salt (5 M MgCl2, which eluted >70% bound label). The eluates were repeatedly desalted on YM10 membranes and resuspended in the respective buffers. Label eluted from mAbGB3.1 gels was mixed with immobilized S100A8/A9 or annexin I and vice versa. Again, after overnight incubation at 4° C., the individual pellets were washed free of all unbound label and counted. […] In comparison, immobilized annexin I precipitated only about 2-3% of mannose labeled glycoproteins from endothelial cells (data not shown).

Molecule | inhibition of mAbGB3.1 reactivity by carboxylic acids (mAbGB3.1) | effect on mAbGB3.1 reactivity in the ELISA assay (mAbGB3.1) | also measured
N[C@H]1C(O)O[C@H](CO)[C@H](O)[C@@H]1O (stereo partly shown) [Chondrosarnine, chondrosamine] |  |  | inhibition of mAbGB3.1 binding by glycosaminoglycan-like compounds (mAbGB3.1): do not inhibit binding
O=C(O)CN(CCN(CC(=O)O)CC(=O)O)CC(=O)O [EDTA, ethylenediamine tetraacetic acid] | inhibited |  | 
O=C[C@H](O)[C@@H](O)[C@@H](O)[C@H](O)COP(=O)(O)O [Gal-6-phosphate, galactose-6-phosphate] |  | unaffected | 
O=C[C@H](O)[C@@H](O)[C@@H](O)[C@H](O)COS(=O)(=O)O [Gal-6-sulfate, galactose-6-sulfate] |  | unaffected | 
O=P(O)(O)O[C@H]1O[C@H](CO)[C@@H](O)[C@H](O)[C@H]1O [Glc-1-phosphate, glucose-1-phosphate] |  | unaffected | 
O=C[C@H](O)[C@@H](O)[C@H](O)[C@H](O)COP(=O)(O)O [Glc-6-phosphate, glucose-6-phosphate] |  | unaffected | 
O=C[C@H](O)[C@@H](O)[C@H](O)[C@H](O)COS(=O)(=O)O [Glc-6-sulfate, glucose-6-sulfate] |  | unaffected | 
CC(=O)N[C@H]1C(OP(=O)(O)O)O[C@H](CO)[C@@H](O)[C@@H]1O (stereo partly shown) [GlcNAc-1-phosphate, glucose-N-acetyl-1-phosphate] |  | unaffected | 
CC(=O)N[C@H]1C(O)O[C@H](COP(=O)(O)O)[C@@H](O)[C@@H]1O (stereo partly shown) [GlcNAc-6-phosphate, glucose-N-acetyl-6-phosphate] |  | unaffected | 
O=C[C@@H](O)[C@@H](O)[C@H](O)[C@H](O)COP(=O)(O)O [Man-6-phosphate, mannose-6-phosphate] |  | unaffected | 
CC(=O)O [acetate] | inhibited |  | 
O=C(O)CC(O)(CC(=O)O)C(=O)O [citrate] | inhibited |  | 
O=C[C@H](O)[C@@H](O)[C@@H](O)[C@H](O)C(=O)O [galacturonic acid] | did not inhibit binding |  | 
O=C[C@H](O)[C@@H](O)[C@H](O)[C@H](O)C(=O)O [glucuronic acid] | did not inhibit binding |  | 
CC(O)C(=O)O (stereo not shown) [lactic acid] | did not inhibit binding |  | 
CC(=O)C(=O)O [pyruvic acid] | did not inhibit binding |  | 
O=C(O)CCC(=O)O [succinate] | inhibited |  | 
S100A1: other S100 protein |  |  | binding to immobilized carboxylated vs neutralized glycans [1]: remained constant
S100A8 homodimer: cross-linked S100A8 homodimer from human neutrophil extracts |  |  | depletion from neutrophil extracts after binding to the glycopeptides [2]: depleted
S100A8/A9 heterodimer: S100A8•S100A9 heterodimer from human neutrophil extracts |  |  | depletion from neutrophil extracts after binding to the glycopeptides [2]: depleted
S100A8/A9 heterotrimer: (S100A8)2•S100A9 heterotrimer from human neutrophil extracts |  |  | depletion from neutrophil extracts after binding to the glycopeptides [2]: depleted
S100A8: recombinant S100A8 alone |  |  | binding to immobilized carboxylated vs neutralized glycans [1]: does not show specific binding
S100B: other S100 protein |  |  | binding to immobilized carboxylated vs neutralized glycans [1]: remained constant
chondroitin sulfate |  |  | inhibition of mAbGB3.1 binding by glycosaminoglycan-like compounds (mAbGB3.1): do not inhibit binding
hyaluronic acid [hyaluronic acid (tetramer and octamer)] |  |  | inhibition of mAbGB3.1 binding by glycosaminoglycan-like compounds (mAbGB3.1): do not inhibit binding
B1 |  |  | % Bound Radioactivity (mean ± SD) [3]: 2-3%; binding to immobilized carboxylated vs neutralized glycans [1]: bound; depletion from the neutrophil preparations after binding to carboxylate-enriched glycopeptides ([2]; intact (37 kDa) protein, FIG. 16 lane 2): > 90%
